Here are results for ten compounds from patent US4713381A, “Oxodiazine compounds and pharmaceutical compositions thereof” (Yoshitomi Pharmaceutical Industries, Ltd., priority 1985, dated 1987).

Structures are written as SMILES. Converted amounts (≈) assume the structure as drawn. Like-named read-outs stand apart in the source and are kept apart here.

The test system of experiment [1] is platelet aggregation. The experiment in a line: Effects on platelet aggregation in vitro (ADP-induced, rat platelet-rich plasma, Born type aggregometer). The format is cell-based, rats. The settings on record: 2 min, read-out: 50% inhibitory concentrations (IC50). The procedure: 1. Effects on platelet aggregation in vitro
Samples of blood are collected from rats weighing 400-450 g and mixed with a 1/10 volume of 3.8% sodium citrate solution. The citrated blood is centrifugated at 200×g for 10 minutes to yield platelet-rich plasma. Test compound is added to platelet-rich plasma thus obtained and maintained at 37° C. for 2 minutes. The platelet aggregation is induced by the addition of 10^-5 M adenosine diphosphate (final concentration) and measured with a Born type six channel aggregometer (Journal of Physiology, vol. 168, pp. 175-198, 1963.
50% inhibitory concentrations (IC50, μg/ml) as compared the control group are calculated. Aspirin and ticlopidine are employed as compounds for comparison.

For experiment [2], the system named is platelet aggregation. Description: Effects on platelet aggregation ex vivo (ADP-induced, rat platelet-rich plasma 2 hours after oral administration). The format is in vivo. The following applies: p.o., rats, after 2 hours, 10^-5 M adenosine diphosphate. The procedure:
2. Effects on platelet aggregation ex vivo
Test compound is orally administered to rats weighing 400-450 g. After 2 hours, samples of blood are collected from the rats and mixed with a 1/10 volume of 3.8% sodium citrate solution. The citrated blood is centrifugated at 200×g for 10 minutes to yield platelet-rich plasma. The platelet aggregation is induced by the addition of 10^-5 M adenosine diphosphate (final concentration) and measured with the same aggregometer as described in the above Method.
Percentage of inhibition as compared with the control group administered with the solvent are calculated.

Setting [3] is: rat platelet-rich plasma, 37° C., 2 minutes, 10^-5 M adenosine diphosphate.

For the compound `Cl.O=C1COC(c2cccn3ccnc23)=NN1` [Example 19, 2-(Imidazo[1,2-a]pyridin-8-yl)-4,6-dihydro-1,3,4-oxadiazin-5-one hydrochloride], the IC50 in the experiment with platelet aggregation [1] (Rattus norvegicus, Platelet) worked out at 1 µg/mL. As for `Cc1nc2sccn2c1C1=NNC(=O)CO1` [Example 5, 2-(6-methylimidazo[2,1-b]thiazol-5-yl)-4,6-dihydro-1,3,4-oxadiazin-5-one], the IC50 in the experiment with platelet aggregation [1] (setting [3]) stood at 0.5 µg/mL (≈ 2.12 µM). This compound also returned an inhibition at 10 mg/kg with platelet aggregation [2] of 54%. On to `Cc1ccc2nc(C)c(C3=NNC(=O)CO3)n2c1` [Example 3, 2-(2,6-dimethylimidazo[1,2-a]pyridin-3-yl)-4,6-dihydro-1,3,4-oxadiazin-5-one], for which, in the experiment on platelet aggregation [1] (setting [3]), the IC50 stood at 3 µg/mL (≈ 12.3 µM). In the case of `O=C1COC(c2csc3nccn23)=NN1` [Example 16, 2-(Imidazo[2,1-b]thiazol-3-yl)-4,6-dihydro-1,3,4-oxadiazin-5-one], in the experiment on platelet aggregation [2], the inhibition at 10 mg/kg is 60%. Turning to `Cc1nc2ccccn2c1C1=NNC(=O)CO1` [Example 1, 2-(2-methylimidazo[1,2-a]pyridin-3-yl)-4,6-dihydro-1,3,4-oxadiazin-5-one], the IC50 in the experiment with platelet aggregation [1] (setting [3]) came to 1 µg/mL (≈ 4.34 µM). The inhibition at 10 mg/kg in the experiment with platelet aggregation [2] worked out at 75%.

`Clc1ccccc1CN1CCc2sccc2C1` [Ticlopidine, ticlopidine, reference compound]: the IC50 in the experiment with platelet aggregation [1] (setting [3]) is greater than 300 µg/mL.

In the case of `Cc1c(C2=NNC(=O)CO2)sc2nccn12` [Example 17, 2-(3-Methylimidazo[2,1-b]thiazol-2-yl)-4,6-dihydro-1,3,4-oxadiazin-5-one], the IC50 in the experiment on platelet aggregation [1] (setting [3]) worked out at 0.6 µg/mL (≈ 2.54 µM). The compound also yielded an inhibition at 10 mg/kg in the experiment on platelet aggregation [2] of 54%. Regarding `Cc1nc2c(C)cccn2c1C1=NNC(=O)CO1` [Example 2, 2-(2,8-dimethylimidazo[1,2-a]pyridin-3-yl)-4,6-dihydro-1,3,4-oxadiazin-5-one], the IC50 in the experiment on platelet aggregation [1] (setting [3]) stood at 1.9 µg/mL (≈ 7.78 µM). For `O=C1COC(c2ccc3nccn3c2)=NN1` [Example 18, 2-(Imidazo[1,2-a]pyridin-6-yl)-4,6-dihydro-1,3,4-oxadiazin-5-one], the IC50 with platelet aggregation [1] (setting [3]) is 0.4 µg/mL (≈ 1.85 µM). In the experiment on platelet aggregation [2], the inhibition at 10 mg/kg was 65%. Take `CC(=O)Oc1ccccc1C(=O)O` [Aspirin, reference compound]: the IC50 in the experiment on platelet aggregation [1] (Rattus norvegicus, Platelet) is greater than 300 µg/mL.

In general, inhibition refers to how much of the control response was suppressed. A lower inhibition goes with little suppression.
